Reference: patent US10149876B2, “Tripterygium wilfordii extracts to overcome chemotherapy resistance” (WESTERN UNIVERSITY OF HEALTH SCIENCES, priority 2012, dated 2018)
Where “and” joins values, the source holds several entries; their conditions need not be identical. Equal values may be shown once. Read-outs that look alike come from different tables or passages of the source.

How the values were obtained:
Format in all cases: cell-based, human
[1] = system: BT474 cells; experiment: SRB cell viability assay, Herceptin-sensitive BT474 cells; conditions: for mean A at 565 nm: 72 h, background = 0.046
Description: (§1) Cell culture of the above cell lines was performed as described in Example 2, except that 5,000, rather than 3,000 cells were plated per well for the K562, K562/Dox, BT474, SkBr3 lines.
(§2) Table 17 also contains the serially-diluted concentrations of drugs that each cell line was tested against.

[2] = system: SkBr3 cells; experiment: SRB cell viability assay, lapatinib-sensitive SkBr3 cells; conditions: for mean A at 565 nm: no chemosensitizing pre-treatment, background = 0.047
Description: as §1, §2
(§3) FIG. 13 summarizes the data of Tables 32-33 in a graphical format.

[3] = system: SkBr3-TxR cells; experiment: SRB cell viability assay, lapatinib-resistant SkBr3-TxR cells; conditions: for viability at 0.001 µM / viability at 0.02 µM / viability at 0.067 µM / viability at 0.2 µM / viability at 0.67 µM / viability at 2 µM / viability at 6.7 µM / viability at 20 µM / IC50: Homo sapiens; for viability at 0.067 µM: Lapatinib 0.067 μM
Source text: as §3
FIG. 14 summarizes the data of Tables 34 and 35 in a graphical format.

How did the viability at 0.001 µM ([1]; Homo sapiens, BT-474, 72 h) turn out when `CS(=O)(=O)CCNCc1ccc(-c2ccc3ncnc(Nc4ccc(OCc5cccc(F)c5)c(Cl)c4)c3c2)o1` [lapatinib] was run?
The viability at 0.001 µM was 100%.

And the viability at 0.05 µM ([1]; Homo sapiens, BT-474, 72 h)?
The viability at 0.05 µM was 65.7%.

What about the viability at 0.167 µM ([1]; Homo sapiens, BT-474, 72 h) of the same molecule?
The viability at 0.167 µM was 52.1%.

And the viability at 0.5 µM ([1]; Homo sapiens, BT-474, 72 h)?
The viability at 0.5 µM was 26.9%.

And the viability at 1.67 µM ([1]; Homo sapiens, BT-474, 72 h)?
The viability at 1.67 µM was 21.1%.

And the viability at 5 µM ([1]; Homo sapiens, BT-474, 72 h)?
The viability at 5 µM was 14.1%.

What about the viability at 16.7 µM ([1]; Homo sapiens, BT-474, 72 h) of the same molecule?
The viability at 16.7 µM was 8%.

And the viability at 50 µM ([1]; Homo sapiens, BT-474, 72 h)?
Its viability at 50 µM is 2.3%.

And the IC50 ([1]; Homo sapiens, BT-474, read-out: IC50 of drug when cells treated with drug only)?
Its IC50 is 116 nM and 0.067 µg/mL.

What about the “mean A at 565 nm” value ([1]; Lapatinib 0.001 μM) of the same molecule?
The value was 1.688.

And the “mean A at 565 nm” value ([1]; Lapatinib 0.167 μM)?
The value was 0.880.

And the “mean A at 565 nm” value ([1]; Lapatinib 0.5 μM)?
The value was 0.453.

What about the “mean A at 565 nm” value ([1]; Lapatinib 5 μM) of the same molecule?
Its value is 0.238.

And the “mean A at 565 nm” value ([1]; Lapatinib 16.7 μM)?
Its value is 0.136.

And the “mean A at 565 nm” value ([1]; Lapatinib 50 μM)?
The value was 0.038.

And the IC50 ([2]; Homo sapiens, SK-BR-3, read-out: IC50 of drug when cells treated with drug only)?
The IC50 was 241 nM and 0.14 µg/mL.

What about the “mean A at 565 nm” value ([2]; Lapatinib 0.001 μM) of the same molecule?
The value was 2.203.

What about the “mean A at 565 nm” value ([2]; Lapatinib 0.067 μM) of the same molecule?
Its value is 1.707.

What about the “mean A at 565 nm” value ([2]; Lapatinib 0.2 μM) of the same molecule?
The value was 1.314.

And the “mean A at 565 nm” value ([2]; Lapatinib 0.67 μM)?
The value was 0.708.

And the “mean A at 565 nm” value ([2]; Lapatinib 2 μM)?
The value was 0.347.

What about the “mean A at 565 nm” value ([2]; Lapatinib 6.7 μM) of the same molecule?
The value was 0.211.

What about the “mean A at 565 nm” value ([2]; Lapatinib 20 μM) of the same molecule?
The value was 0.221.

What about the viability at 0.001 µM ([3]; Lapatinib 0.001 μM, 72 h, no LGT-E pre-treatment (control to Table 34)) of the same molecule?
Its viability at 0.001 µM is 100%.

And the viability at 0.001 µM ([3]; Lapatinib 0.001 μM, 72 h, pre-treated with […] LGT-E)?
Its viability at 0.001 µM is 100%.

What about the viability at 0.001 µM ([3]; Lapatinib 0.001 μM, no chemosensitizing pre-treatment (Table 33)) of the same molecule?
Its viability at 0.001 µM is 100%.

What about the viability at 0.02 µM ([3]; Lapatinib 0.02 μM, 72 h, no LGT-E pre-treatment (control to Table 34)) of the same molecule?
The viability at 0.02 µM was 99.2%.

What about the viability at 0.02 µM ([3]; Lapatinib 0.02 μM, 72 h, pre-treated with […] LGT-E) of the same molecule?
Its viability at 0.02 µM is 97.2%.

And the viability at 0.02 µM ([3]; Lapatinib 0.02 μM, no chemosensitizing pre-treatment (Table 33))?
The viability at 0.02 µM was 103%.

And the viability at 0.067 µM ([3]; 72 h, no LGT-E pre-treatment (control to Table 34))?
The viability at 0.067 µM was 96.2%.

What about the viability at 0.067 µM ([3]; 72 h, pre-treated with […] LGT-E) of the same molecule?
Its viability at 0.067 µM is 92.6%.

What about the viability at 0.067 µM ([3]; no chemosensitizing pre-treatment (Table 33)) of the same molecule?
The viability at 0.067 µM was 102%.

What about the viability at 0.2 µM ([3]; Lapatinib 0.2 μM, 72 h, no LGT-E pre-treatment (control to Table 34)) of the same molecule?
The viability at 0.2 µM was 93.1%.

What about the viability at 0.2 µM ([3]; Lapatinib 0.2 μM, 72 h, pre-treated with […] LGT-E) of the same molecule?
The viability at 0.2 µM was 90.3%.

What about the viability at 0.2 µM ([3]; Lapatinib 0.2 μM, no chemosensitizing pre-treatment (Table 33)) of the same molecule?
The viability at 0.2 µM was 97.2%.

And the viability at 0.67 µM ([3]; Lapatinib 0.67 μM, 72 h, no LGT-E pre-treatment (control to Table 34))?
Its viability at 0.67 µM is 88.8%.

What about the viability at 0.67 µM ([3]; Lapatinib 0.67 μM, 72 h, pre-treated with […] LGT-E) of the same molecule?
The viability at 0.67 µM was 75.9%.

And the viability at 0.67 µM ([3]; Lapatinib 0.67 μM, no chemosensitizing pre-treatment (Table 33))?
Its viability at 0.67 µM is 91.8%.

And the viability at 2 µM ([3]; Lapatinib 2 μM, 72 h, no LGT-E pre-treatment (control to Table 34))?
The viability at 2 µM was 70.4%.

And the viability at 2 µM ([3]; Lapatinib 2 μM, 72 h, pre-treated with […] LGT-E)?
Its viability at 2 µM is 60.9%.

And the viability at 2 µM ([3]; Lapatinib 2 μM, no chemosensitizing pre-treatment (Table 33))?
The viability at 2 µM was 77.2%.

What about the viability at 6.7 µM ([3]; Lapatinib 6.7 μM, 72 h, no LGT-E pre-treatment (control to Table 34)) of the same molecule?
Its viability at 6.7 µM is 47.7%.

And the viability at 6.7 µM ([3]; Lapatinib 6.7 μM, 72 h, pre-treated with […] LGT-E)?
The viability at 6.7 µM was 34.9%.

What about the viability at 6.7 µM ([3]; Lapatinib 6.7 μM, no chemosensitizing pre-treatment (Table 33)) of the same molecule?
Its viability at 6.7 µM is 46.4%.

And the viability at 20 µM ([3]; Lapatinib 20 μM, 72 h, no LGT-E pre-treatment (control to Table 34))?
Its viability at 20 µM is 25.4%.

What about the viability at 20 µM ([3]; Lapatinib 20 μM, 72 h, pre-treated with […] LGT-E) of the same molecule?
Its viability at 20 µM is 18.3%.

And the viability at 20 µM ([3]; Lapatinib 20 μM, no chemosensitizing pre-treatment (Table 33))?
Its viability at 20 µM is 26.4%.

What about the IC50 ([3]; read-out: IC50 of drug when cells pre-treated with Chemosensitizing Agent before drug treatment) of the same molecule?
The IC50 was 3.92 µM and 2.28 µg/mL.

And the IC50 ([3]; read-out: IC50 of drug when cells treated with drug only)?
The IC50 was 6.2 µM and 3.6 µg/mL.

What about the “mean A at 565 nm” value ([3]; Lapatinib 0.001 μM, 72 h, no LGT-E pre-treatment (control to Table 34), background = 0.044) of the same molecule?
Its value is 2.294.

What about the “mean A at 565 nm” value ([3]; Lapatinib 0.001 μM, no chemosensitizing pre-treatment (Table 33), background = 0.047) of the same molecule?
Its value is 2.298.

What about the “mean A at 565 nm” value ([3]; Lapatinib 0.02 μM, 72 h, no LGT-E pre-treatment (control to Table 34), background = 0.044) of the same molecule?
Its value is 2.276.

And the “mean A at 565 nm” value ([3]; Lapatinib 0.02 μM, 72 h, pre-treated with […] LGT-E, background = 0.044)?
The value was 2.151.

What about the “mean A at 565 nm” value ([3]; Lapatinib 0.02 μM, no chemosensitizing pre-treatment (Table 33), background = 0.047) of the same molecule?
Its value is 2.357.

And the “mean A at 565 nm” value ([3]; Lapatinib 0.2 μM, 72 h, pre-treated with […] LGT-E, background = 0.044)?
The value was 1.999.

What about the “mean A at 565 nm” value ([3]; Lapatinib 0.2 μM, no chemosensitizing pre-treatment (Table 33), background = 0.047) of the same molecule?
Its value is 2.234.

And the “mean A at 565 nm” value ([3]; Lapatinib 0.67 μM, 72 h, no LGT-E pre-treatment (control to Table 34), background = 0.044)?
The value was 2.038.

And the “mean A at 565 nm” value ([3]; Lapatinib 2 μM, 72 h, no LGT-E pre-treatment (control to Table 34), background = 0.044)?
The value was 1.614.

And the “mean A at 565 nm” value ([3]; Lapatinib 2 μM, 72 h, pre-treated with […] LGT-E, background = 0.044)?
Its value is 1.348.

What about the “mean A at 565 nm” value ([3]; Lapatinib 2 μM, no chemosensitizing pre-treatment (Table 33), background = 0.047) of the same molecule?
Its value is 1.775.

What about the “mean A at 565 nm” value ([3]; Lapatinib 6.7 μM, 72 h, no LGT-E pre-treatment (control to Table 34), background = 0.044) of the same molecule?
The value was 1.095.

What about the “mean A at 565 nm” value ([3]; Lapatinib 6.7 μM, 72 h, pre-treated with […] LGT-E, background = 0.044) of the same molecule?
The value was 0.772.

And the “mean A at 565 nm” value ([3]; Lapatinib 6.7 μM, no chemosensitizing pre-treatment (Table 33), background = 0.047)?
Its value is 1.066.

What about the “mean A at 565 nm” value ([3]; Lapatinib 20 μM, 72 h, no LGT-E pre-treatment (control to Table 34), background = 0.044) of the same molecule?
The value was 0.584.

And the “mean A at 565 nm” value ([3]; Lapatinib 20 μM, 72 h, pre-treated with […] LGT-E, background = 0.044)?
Its value is 0.406.

What about the “mean A at 565 nm” value ([3]; Lapatinib 20 μM, no chemosensitizing pre-treatment (Table 33), background = 0.047) of the same molecule?
The value was 0.607.
